Data published in patent US20250340569A1, “INHIBITORS OF KIF18A AND USES THEREOF” (Insilico Medicine IP Limited, priority 2023, published 2025).

Columns and labels:
OVCAR-3 = assay: OVCAR3 CTG assay; format: cell-based; conditions: Homo sapiens, OVCAR-3, 144 h; CellTiter-Glo, 6 days incubation
Source text: Example B2: OVCAR3 CTG Assay
• a) Preparation of complete medium: Added FBS and appropriate additives according to the information sheet provided by the vendor. Mix gently. • b) Checked the cell name and complete medium and passage number marked on the flask. For adherent cell lines, refer to c to k. For suspension cell lines, refer to g to k. • c) Removed and discarded culture medium using a vacuum pump. • d) Briefly rinsed the cell layer with 0.25% (w/v) Trypsin-0.038% (w/v) EDTA solution to remove all traces of serum that contains trypsin inhibitor. • e) Added 3.0 ml of Trypsin-EDTA solution to flask and observed cells under an inverted microscope until cell layer is dispersed. • f) Added 9.0 ml of complete growth medium and aspirated cells by gently pipetting. • g) Transfered the cell suspension to a centrifuge tube and centrifuged at 1000 rpm for 4 minutes. • h) Discarded the supernatant using a vacuum pump. • i) Added appropriate volume of complete medium. Suspended the cell pellet by gently pipetting. • j) Counted the cell numbers with Vi-cell XR and adjusted cells to appropriate density. • k) Added 190 μL of cell suspension to 96-well opaque-walled clear bottom plates according to the planned plate layout and placed the plates in the CO2 incubator overnight.
2) Compound Stock Preparation:
• a) Plate preparation of testing articles:
The compounds were dissolved in DMSO to prepare 10 mM stock solution. The start working concentration (2 mM) was prepared with DMSO.
b) Staurosporine Plate Preparation:
0.4 mM Staurosporine was prepared in DMSO at working concentration.
The 20× compound containing medium was prepared according to the plate map. 10 μL of 20× compound containing medium was added into each well of the assay plates. Centrifuged at 1000 rpm for 1 minute. The total dilution was 200-fold.
3) Cells were Incubated with the Compounds for 6 Days at 5% CO2, 37° C.
Assay Measurement for CTG Assay
1) Preparation of Reagents
• a) Thawed the CellTiter-Glo buffer and equilibrated to room temperature prior to use. • b) Equilibrated the lyophilized CellTiter-Glo substrate to room temperature prior to use. • c) Transfered the appropriate volume of CellTiter-Glo buffer into the amber bottle containing CellTiter-Glo substrate to reconstitute the lyophilized enzyme/substrate mixture. This formed the CellTiter-Glo reagent. • d) Mixed by gently vortexing, swirling or by inverting the contents to obtain a homogeneous solution. The CellTiter-Glo substrate went into solution easily in less than one minute.
• a) Observed the cell morphology under an inverted microscope after corresponding treatment. • b) Equilibrated the plate and its contents to room temperature for approximately 30 minutes. • c) Added 100 μL of CellTiter-Glo reagent to the assay plate by Multidrop Combi instrument. • d) Mixed contents for 10 minutes on an orbital shaker to induce cell lysis. • e) Allowed the plate to incubate at room temperature for 10 minutes to stabilize luminescent signal. • f) Pasted the clear bottom with white back seal and record luminescence with Envision. The settings should be: Luminescence, measurement time 0.1 s.

Kif18A = molecular target: T1, Kif18A (Homo sapiens, UniProt Q8NI77); assay: KIF18A assay (ADP Glo); conditions: biochemical assay, ADP Glo luminescence
T1 sequence (Q8NI77 1-898): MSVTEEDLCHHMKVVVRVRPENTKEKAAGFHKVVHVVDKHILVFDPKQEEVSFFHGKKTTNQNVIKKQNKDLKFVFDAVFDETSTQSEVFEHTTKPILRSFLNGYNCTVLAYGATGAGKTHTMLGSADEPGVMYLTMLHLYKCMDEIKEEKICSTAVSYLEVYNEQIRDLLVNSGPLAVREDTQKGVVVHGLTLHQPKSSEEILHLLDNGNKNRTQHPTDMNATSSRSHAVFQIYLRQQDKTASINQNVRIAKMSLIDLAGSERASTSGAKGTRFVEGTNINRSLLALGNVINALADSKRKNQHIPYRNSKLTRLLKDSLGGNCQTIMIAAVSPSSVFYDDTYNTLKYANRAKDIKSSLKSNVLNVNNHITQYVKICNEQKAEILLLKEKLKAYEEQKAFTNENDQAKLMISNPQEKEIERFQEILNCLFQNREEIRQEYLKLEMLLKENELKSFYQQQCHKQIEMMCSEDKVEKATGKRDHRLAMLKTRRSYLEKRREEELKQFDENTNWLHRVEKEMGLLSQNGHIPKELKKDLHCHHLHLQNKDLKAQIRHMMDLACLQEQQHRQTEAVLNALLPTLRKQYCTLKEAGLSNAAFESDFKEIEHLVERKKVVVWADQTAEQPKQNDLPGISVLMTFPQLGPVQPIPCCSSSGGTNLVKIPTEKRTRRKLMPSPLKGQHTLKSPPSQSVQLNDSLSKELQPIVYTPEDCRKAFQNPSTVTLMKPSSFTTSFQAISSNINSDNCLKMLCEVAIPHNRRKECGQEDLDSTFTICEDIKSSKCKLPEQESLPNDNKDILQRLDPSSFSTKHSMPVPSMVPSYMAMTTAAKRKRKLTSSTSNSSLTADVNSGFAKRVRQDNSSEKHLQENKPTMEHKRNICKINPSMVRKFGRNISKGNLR
Procedure: The KIF18A assay was performed as follows:
1.1. Prepared 1× Kinase Buffer
• a) Added 40 μL test compound to 384-well dilution plate • b) Diluted compound 1:3 in succession in DMSO for each column for 10 pts • c) Transferred 0.1 μL diluted compound solution to 384 assay plate using Echo, each column containing 2 replicates • d) Added 5 μL enzyme working solution to 384-well assay plate, centrifuge 1000 RPM for 1 min e) Incubated at 25° C. for 15 min • f) Added 5 μL ATP working solution to initiate reaction • g) Incubated at 25° C. for 60 min • h) Added 10 μL ADP Glo reagent, centrifuge 1000 RPM for 1 min • i) Incubated at 25° C. for 60 min • j) Added 20 μL kinase detection reagent, centrifuge 1000 RPM for 1 min • k) Incubated at 25° C. for 60 min • l) Read Luminescence Signal on Envision 2104 plate reader.
1.3. Data Analysis—Calculated IC50 and Plot Dose-Response Curve of Compounds:
Calculated IC50 by fitting % Inhibition values and log of compound concentrations to nonlinear regression (dose response−variable slope) with GraphPad 6.0.
[formula] • X: log of inhibitor concentration; Y: % Inhibition

| Structure (SMILES) | IC50 (OVCAR-3) [nM] | IC50 (Kif18A) [nM] |
| --- | --- | --- |
| Cc1cc2nc(n1)NCCCOCC1(C)CCN(CC1)c1cc(S(N)(=O)=O)ccc1C(=O)N2 [EX25-A] | 10 to 100 | 10 to 100 |
| C[C@@H]1CNc2cccc(n2)NC(=O)c2ccc(NS(=O)(=O)CCO)cc2N2CCC(C(F)(F)F)(CC2)COC1 [EX56-B] | < 10 | < 10 |
| CO[C@H]1CNc2cccc(n2)NC(=O)c2ccc(NS(=O)(=O)CCO)cc2N2CCC(C(F)(F)F)(CC2)COC1 [EX78-B] | < 10 |  |
| C[C@H]1COCC2(C(F)(F)F)CCN(CC2)c2cc(NS(=O)(=O)CCO)ccc2C(=O)Nc2cccc(n2)CO1 [EX84-A] | 10 to 100 |  |
| CCS(=O)(=O)Nc1ccc2c(c1)N1CCC(C(F)(F)F)(CC1)COC[C@@H](C)CNc1cccc(n1)NC2=O [EX88-A] | 10 to 100 |  |
| C[C@@H]1CNc2nc(ccc2F)NC(=O)c2ccc(NS(=O)(=O)CCO)cc2N2CCC(C(F)(F)F)(CC2)COC1 [EX76-B] | 10 to 100 |  |
| C[C@@H]1C/C=C/C2(C(F)(F)F)CCN(CC2)c2cc(NS(=O)(=O)CCO)ccc2C(=O)Nc2cccc(n2)NC1 [EX85-A] | 10 to 100 |  |
| CO[C@H]1CNc2nc(C)cc(n2)NC(=O)c2ccc(NS(=O)(=O)CCO)cc2N2CCC(C(F)(F)F)(CC2)COC1 [EX46-A] | 10 to 100 |  |
| O=C1Nc2cccc(n2)N2CCO[C@@H](COCC3(C(F)(F)F)CCN(CC3)c3cc(NS(=O)(=O)CCO)ncc31)C2 (stereo in doubt) [EX92-B] | < 10 |  |
| Cc1cc2nc(n1)N1CCO[C@@H](CCCC3(C(F)(F)F)CCN(CC3)c3cc(NS(=O)(=O)CCO)ccc3C(=O)N2)C1 [EX111-B] | 10 to 100 |  |
| O=C1Nc2ccnc(n2)N2CCO[C@H](COCC3(C(F)(F)F)CCN(CC3)c3cc(NS(=O)(=O)CCO)ccc31)C2 [EX93-A] | < 10 |  |
| O=C1Nc2ccnc(n2)N2CCO[C@@H](COCC3(C(F)(F)F)CCN(CC3)c3cc(NS(=O)(=O)CCO)ccc31)C2 [EX93-B] | 10 to 100 |  |
| Cc1cc2nc(n1)N1CCO[C@H](CCCC3(C(F)(F)F)CCN(CC3)c3cc(NS(=O)(=O)CCO)ccc3C(=O)N2)C1 [EX111-A] | 100 to 1000 |  |
| CO[C@@H]1CNc2nc(C)cc(n2)NC(=O)c2ccc(NS(=O)(=O)CCO)cc2N2CCC(C(F)(F)F)(CC2)COC1 [EX46-B] | 10 to 100 |  |
| C[C@H]1CCCC2(C(F)(F)F)CCN(CC2)c2cc(NS(=O)(=O)CCO)ccc2C(=O)Nc2cccc(n2)NC1 [EX79-B] | < 10 |  |
| Cc1cc2nc(n1)N1CCO[C@@H](COCC3(C(F)F)CCN(CC3)c3cc(NS(=O)(=O)CCO)ccc3C(=O)N2)C1 [EX113-B] | 10 to 100 |  |
| Cc1cc2nc(n1)NC[C@@H](C(F)(F)F)COCC1(C)CCN(CC1)c1cc(NS(=O)(=O)CCO)ccc1C(=O)N2 [EX32-B] | 10 to 100 |  |

Next, values leading:

| IC50 (OVCAR-3) [nM] | IC50 (Kif18A) [nM] | Structure (SMILES) |
| --- | --- | --- |
| 100 to 1000 | < 10 | Cc1cc2nc(n1)N(C)CCCOCC1(C)CCN(CC1)c1cc(NS(=O)(=O)CCO)ccc1C(=O)N2 [EX06] |
| 100 to 1000 | 100 to 1000 | CN1CCOCC2(C)CCN(CC2)c2cc(NS(=O)(=O)CCO)ccc2C(=O)Nc2cccc(n2)C1=O [EX21] |
| 10 to 100 | 10 to 100 | [2H]C([2H])([2H])N1CCCOCC2(C(F)(F)F)CCN(CC2)c2cc(NS(=O)(=O)CCO)ccc2C(=O)Nc2ccnc1c2 [EX58] |
| 10 to 100 | 10 to 100 | Cc1cc2nc(n1)N(C)CCOCC1(C)CCN(CC1)c1cc(NS(=O)(=O)CCO)ccc1C(=O)N2 [EX04] |
| 10 to 100 | 10 to 100 | Cc1cc2nc(n1)NCCCOCC1(C)CCN(CC1)c1cc(NS(=O)(=O)CCO)ccc1C(=O)N2 [EX12] |
| 100 to 1000 | 10 to 100 | Cc1cc2nc(n1)N(C)CCOCCC1(C)CCN(CC1)c1cc(NS(=O)(=O)CCO)ccc1C(=O)N2 [EX09] |
| 10 to 100 | 10 to 100 | Cc1cc2nc(n1)NCCCCOCC1(C(F)(F)F)CCN(CC1)c1cc(NS(=O)(=O)CCO)ccc1C(=O)N2 [EX59] |
|  | 10 to 100 | Cc1cc2nc(n1)NCC(O)COCC1(C)CCN(CC1)c1cc(NS(=O)(=O)CCO)ccc1C(=O)N2 (stereo not shown) [EX40] |
| 10 to 100 |  | CN1CCCOCC2(C(F)(F)F)CCN(CC2)c2cc(NS(=O)(=O)CCO)cnc2C(=O)Nc2cccc1n2 [EX86] |
| 1000 to 10000 |  | [2H]C([2H])([2H])N1CCCCOCC2(C(F)(F)F)CCN(CC2)c2cc(NS(=O)(=O)CCO)ccc2C(=O)Nc2cc(C)nc1n2 [EX47] |
| < 10 |  | Cc1cc2nc(n1)NCC1(CC1)COCC1(C(F)(F)F)CCN(CC1)c1cc(NS(=O)(=O)CCO)ccc1C(=O)N2 [EX43] |
| 10 to 100 |  | CC12CCN(CC1)c1cc(S(=O)(=O)NC(C)(C)C)ccc1C(=O)Nc1ccc(=O)n(n1)CCCCOC2 [EX14] |
| 100 to 1000 |  | C/C1=C/CNc2cccc(n2)NC(=O)c2ccc(NS(=O)(=O)CCO)cc2N2CCC(C(F)(F)F)(CC2)COC1 [EX77] |
| 10 to 100 |  | CN1CCCOCC2(C(F)F)CCN(CC2)c2cc(NS(=O)(=O)CCO)ccc2C(=O)Nc2cccc1n2 [EX110] |
| 10 to 100 |  | O=C1Nc2cccc(n2)NC/C=C\COCC2(C(F)(F)F)CCN(CC2)c2cc(NS(=O)(=O)CCO)ccc21 [EX66] |
| 100 to 1000 |  | O=C1NCCOCC2(C(F)(F)F)CCN(CC2)c2cc(NS(=O)(=O)CCO)ccc2C(=O)Nc2cccc1n2 [EX49] |
| 10 to 100 |  | Cc1cc2nc(n1)NC1CC(C1)OCC1(C(F)(F)F)CCN(CC1)c1cc(NS(=O)(=O)CCO)ccc1C(=O)N2 [EX53] |
| 1000 to 10000 |  | CN1CCCOCC2(C(F)(F)F)CCN(CC2)c2cc(NS(=O)(=O)CCO)ccc2C(=O)Nc2nccc1n2 [EX87] |
| 10 to 100 |  | O=C1Nc2cccc(n2)N(C2CC2)CCCOCC2(C(F)(F)F)CCN(CC2)c2cc(NS(=O)(=O)CCO)ccc21 [EX71] |
| 10 to 100 |  | [2H]C([2H])([2H])N1CCCOCC2(C(F)(F)F)CCN(CC2)c2cc(S(=O)(=O)NC(C)(C)C)ccc2C(=O)Nc2cccc1n2 [EX69] |
| 10 to 100 |  | O=C1Nc2cccc(n2)NCC2(CC2)COCC2(C(F)(F)F)CCN(CC2)c2cc(NS(=O)(=O)CCO)ccc21 [EX68] |
| 10 to 100 |  | CN1CCCCCC2(C(F)(F)F)CCN(CC2)c2cc(NS(=O)(=O)CCO)c(F)cc2C(=O)Nc2cccc1n2 [EX104] |
| 100 to 1000 |  | [2H]C([2H])([2H])N1CCCCC2(C(F)(F)F)CCN(CC2)c2cc(NS(=O)(=O)CCO)ccc2C(=O)Nc2cccc1n2 [EX63] |
